Key:
[1] = biological target: T1, carbohydrate recognition domain of human galectin-3 (Galectin-3-CRD) (Homo sapiens, UniProt P17931); test: Galectin-3 activity microscale thermophoresis assay; format: binding; details: label-free MST, 20 nM galectin-3-CRD; average of all assays (± standard deviation), each assay in triplicate
T1 construct: The carbohydrate recognition domain of human galectin-3 (Servesto Galectin-3-CRD) was diluted; purchased Servesto
Description: The carbohydrate recognition domain of human galectin-3 (Servesto Galectin-3-CRD) was diluted with PBS+0.1% F127 to 40 nM. Separately, a 40 uM stock of Compound 45 in DMSO was diluted down to 4 uM in PBS+0.1% F127 and serially diluted in sixteen steps using a dilution factor of 1 to 2 in 10% DMSO+PBS+0.1% F127. To each sample in the serial dilution of Compound 45, 10 ul of 40 nM Galectin-3-CRD was added, yielding final concentrations of 20 nM galectin-3-CRD and 5% DMSO+PBS+0.1% F127. NT.LabelFree Zero background Standard Treated Capillaries were filled with the prepared solutions then loaded into the Monolith NT Label-Free MST instrument. The reaction was measured with 100% excitation power of LED and medium (40%) MST power. Binding curves and Kd values were generated using MO affinity analysis. Each assay was run in triplicate. Some compounds were subjected to more than one assay run in triplicate.

galectin-3 = biological target: T2, galectin-3 (Homo sapiens, UniProt P17931); test: Galectin-3 activity ELISA assay: inhibition of galectin-3 binding to immobilized Galβ1-3GlcNAc polymer; details: inhibition of galectin-3 binding to Galβ1-3GlcNAc polymer, average (± standard deviation) where assayed more than once
T2 construct: purchased IBL IBATGP0414
Source text: An inhibition assay may be used to screen for antagonists of galectin-3. For example, an assay may be performed to characterize the capability of a compound described herein to inhibit interaction of galectin-3 with a Galβ1-3GlcNAc carbohydrate structure. The inhibition assay may be a competitive binding assay, which allows the determination of IC50 values. By way of example, a Galβ1-3GlcNAc polymer may be immobilized onto a matrix; a composition may be added to reduce nonspecific binding; the immobilized Galβ1-3GlcNAc polymer may be contacted with the candidate compound in the presence of galectin-3 group under conditions and for a time sufficient to permit galectin-3 to bind to the immobilized Galβ1-3GlcNAc polymer; the immobilized Galβ1-3GlcNAc polymer may be washed; and the amount of galectin-3 bound to the immobilized Galβ1-3GlcNAc polymer may be detected. Variations of such steps can be readily and routinely accomplished by a person of ordinary skill in the art.
Galectin-3 antagonists were evaluated for their ability to inhibit binding of galectin-3 to a Galβ1-3GlcNAc carbohydrate structure. The detailed protocol was as follows. A 1 μg/mL suspension of a Galβ1-3GlcNAcβ1-3Galβ1-4GlcNAcβ-PAA-biotin polymer (Glycotech, catalog number 01-096) was prepared. A 100 μL aliquot of the polymer was added to the wells of a 96-well streptavidin-coated plate (R&D Systems, catalog number CP004). A 100 μL aliquot of 1× Tris Buffered Saline (TBS, Sigma, catalog number T5912-10X) was added to control wells. The polymer was allowed to bind to the streptavidin-coated wells for 1.5 hours at room temperature. The contents of the wells were discarded, and 200 μL of 1×TBS containing 1% bovine serum albumin (BSA) was added to each well as a blocking reagent and the plate was kept at room temperature for 30 minutes. The wells were washed three times with 1×TBS containing 0.1% BSA. A serial dilution of test compounds was prepared in a separate V-bottom plate (Corning, catalog number 3897). A 75 μL aliquot of the highest concentration of the compound to be tested was added to the first well in a column of the V-bottom plate, then 15 μL were serially transferred into 60 μL 1×TBS through the remaining wells in the column to generate a 1 to 5 serial dilution. A 60 μL aliquot of 2 μg/mL galectin-3 (IBL, catalog number IBATGP0414) was added to each well in the V-bottom plate. A 100 μL aliquot of the galectin-3 test compound mixture was transferred from the V-bottom plate into the assay plate containing the Galβ1-3GlcNAc polymer. Four sets of control wells in the assay plate were prepared in duplicate containing 1) both Galβ1-3GlcNAc polymer and galectin-3, 2) neither the polymer nor galectin-3, 3) galectin-3 only, no polymer, or 4) polymer only, no galectin-3. The plate was gently rocked for 1.5 hours at room temperature. The wells were washed four times with TBS/0.1% BSA. A 100 μL aliquot of anti-galectin-3 antibody conjugated to horse radish peroxidase (R&D Systems, from DGAL30 kit) was added to each well, and the plate was kept at room temperature for 1 hour. The wells were washed four times with TBS/0.1% BSA. A 100 μL aliquot of TMB substrate solution was added to each well. The TMB substrate solution was prepared by making a 1:1 mixture of TMB Peroxidase Substrate (KPL, catalog number 5120-0048) and Peroxidase Substrate Solution B (KPL, catalog number 5120-0037). The plate was kept at room temperature for 10 to 20 minutes. The color development was stopped by adding 100 uL 10% phosphoric acid (RICCA Chemical Co., catalog number 5850-16). The absorbance at 450 nm (A450) was measured using a FlexStation 3 plate reader (Molecular Devices). Plots of A450 versus test compound concentration and IC50 determinations were made using GraphPad Prism 6. The number of assays run (n) for each compound is recorded in the following table.

T2 sequence (P17931 whole entry): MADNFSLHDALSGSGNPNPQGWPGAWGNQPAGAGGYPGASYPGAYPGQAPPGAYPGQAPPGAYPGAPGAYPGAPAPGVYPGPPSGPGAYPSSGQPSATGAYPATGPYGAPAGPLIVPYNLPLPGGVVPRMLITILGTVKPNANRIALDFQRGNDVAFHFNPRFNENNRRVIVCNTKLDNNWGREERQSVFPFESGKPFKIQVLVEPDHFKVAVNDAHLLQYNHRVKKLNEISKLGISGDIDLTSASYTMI
T1 sequence (P17931 118-248 limits assumed): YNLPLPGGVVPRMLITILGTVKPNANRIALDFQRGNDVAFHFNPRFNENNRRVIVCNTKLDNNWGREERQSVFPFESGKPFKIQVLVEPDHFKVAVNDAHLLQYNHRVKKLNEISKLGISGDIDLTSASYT

Kd [1]	IC50 (galectin-3)	Structure (SMILES)
8 nM	182 nM	COC1C(n2cc(-c3cc(F)c(F)c(F)c3)nn2)[C@@H](O)C(CO)O[C@H]1[C@H](OCc1ccc(Br)cc1)C(=O)N[C@@H](C)C(F)(F)F (some centres unmarked) [Compound 73]
11 nM	408 nM	[2H]C([2H])([2H])OC1C(n2cc(-c3cc(F)c(F)c(F)c3)nn2)[C@@H](O)C(CO)O[C@H]1[C@H](OCc1ccc(Br)cc1)C(=O)NC1CC1 (some centres unmarked) [Compound 47]
18 nM	386 nM	CNC(=O)[C@@H](OCc1ccc(Cl)cc1)[C@@H]1OC(CO)[C@H](O)C(n2cc(-c3cc(F)c(F)c(F)c3)nn2)C1OC (some centres unmarked) [Compound 84, reference compound]
2.2 nM	153 nM	[2H]C([2H])([2H])OC1C(n2cc(-c3cc(F)c(F)c(F)c3)nn2)[C@@H](O)C(CO)O[C@H]1[C@H](OCc1ccc(Br)cc1)C(=O)NC1CCC1 (some centres unmarked) [Compound 67]
8.9 nM	171 nM	[2H]C([2H])([2H])OC1C(n2cc(-c3cc(F)c(F)c(F)c3)nn2)[C@@H](O)C(CO)O[C@H]1[C@H](OCc1ccc(Br)cc1)C(=O)NC(C)C (some centres unmarked) [Compound 45]
3.6 nM	143 nM	[2H]C([2H])([2H])OC1C(n2cc(-c3cc(F)c(F)c(F)c3)nn2)[C@@H](O)C(CO)O[C@H]1[C@H](OCc1ccc(Br)cc1)C(=O)NC1CC(F)(F)C1 (some centres unmarked) [Compound 66]
13 nM	364 nM	[2H]C([2H])([2H])OC1C(n2cc(-c3cc(F)c(F)c(F)c3)nn2)[C@@H](O)C(CO)O[C@H]1[C@H](OCc1ccc(Br)cc1)C(=O)N[C@H]1C[C@H]1F (some centres unmarked) [Compound 65]
31 nM	470 nM	COC1C(n2cc(-c3cc(F)c(F)c(F)c3)nn2)[C@@H](O)C(CO)O[C@H]1[C@H](OCc1ccc(Br)cc1)C(=O)O (some centres unmarked) [Compound 76]
20 nM	192 nM	COC1C(n2cc(-c3cc(F)c(F)c(F)c3)nn2)[C@@H](O)C(CO)O[C@H]1[C@H](OCc1ccc(Br)cc1)C(=O)NCCO (some centres unmarked) [Compound 70]
22 nM	51 nM	[2H]C([2H])([2H])OC1C(n2cc(-c3cc(F)c(F)c(F)c3)nn2)[C@@H](O)C(CO)O[C@H]1[C@H](OCc1ccc(Br)cc1)C(=O)NC1CNC1 (some centres unmarked) [Compound 63]
23 nM	448 nM	CNC(=O)[C@@H](OCc1ccc(Br)cc1)[C@@H]1OC(CO)[C@H](O)C(n2cc(-c3cc(F)c(F)c(F)c3)nn2)C1OC (some centres unmarked) [Compound 19]
10 nM	201 nM	[2H]C([2H])([2H])OC1C(n2cc(-c3cc(F)c(F)c(F)c3)nn2)[C@@H](O)C(CO)O[C@H]1[C@H](OCc1ccc(Br)cc1)C(=O)NC1(C)CC1 (some centres unmarked) [Compound 50]
1.7 nM	271 nM	COC1C(n2cc(-c3cc(F)c(F)c(F)c3)nn2)[C@@H](O)C(CO)O[C@H]1[C@H](OCc1ccc(Br)cc1)C(=O)NC(C)C (some centres unmarked) [Compound 23]
36 nM	265 nM	COCCCNC(=O)[C@@H](OCc1ccc(Br)cc1)[C@@H]1OC(CO)[C@H](O)C(n2cc(-c3cc(F)c(F)c(F)c3)nn2)C1OC (some centres unmarked) [Compound 20]
18 nM	236 nM	[2H]C([2H])([2H])OC1C(n2cc(-c3cc(F)c(F)c(F)c3)nn2)[C@@H](O)C(CO)O[C@H]1[C@H](OCc1ccc(Br)cc1)C(=O)NC1COC1 (some centres unmarked) [Compound 64]
17 nM	702 nM	[2H]C([2H])([2H])OC1C(n2cc(-c3cc(F)c(F)c(F)c3)nn2)[C@@H](O)C(CO)O[C@H]1[C@H](OCc1ccc(Br)cc1)C(=O)NC1(C(F)(F)F)CC1 (some centres unmarked) [Compound 51]
87 nM	709 nM	[2H]C([2H])([2H])OC1C(n2cc(-c3cc(F)c(F)c(F)c3)nn2)[C@@H](O)C(CO)O[C@H]1[C@H](OCc1ccc(Br)cc1)C(=O)N(C)C (some centres unmarked) [Compound 68]
26 nM	173 nM	CC(C)OC(=O)[C@@H](OCc1ccc(Br)cc1)[C@@H]1OC(CO)[C@H](O)C(n2cc(-c3cc(F)c(F)c(F)c3)nn2)C1O (some centres unmarked) [Compound 27]
14 nM	204 nM	COCCCNC(=O)[C@@H](OCc1ccc(Br)cc1)[C@@H]1OC(CO)[C@H](O)C(n2cc(-c3cc(F)c(F)c(F)c3)nn2)C1O (some centres unmarked) [Compound 36]

From patent US20240270724A1, “GALECTIN-3 INHIBITING C-GLYCOSIDES” (GLYCOMIMETICS, INC., priority 2021, published 2024)
